The subject of one assay is MDA-MB-435 cells. Nature of the assay: FACS analysis of FITC-peptide binding to MDA-MB-435 cells. The format is cell-based. As to conditions: 10 μM, 1 hour at 4° C.; compared with Lyp-1. Here is the method: MDA-MB-435 cells were transiently transfected with gC1qR/p32-specific or control siRNAs. […] The amount of fluorescence in living cells was analyzed by FACS. Cells incubated in the absence of peptide served as FITC negative control. Compared to control siRNA transfected cells, down-regulation of gC1qR/p32 expression (in the presence of gC1qR/p32 siRNA) caused a shift in the peak of Lyp-1 fluorescence but not control peptide fluorescence.
Cultured cells were detached with cell enzyme-free dissociation buffer (Gibco/Invitrogen) and collected in PBS containing 1% BSA (PBSB). Single cells suspensions from tumors were obtained as indicated above. For FACS staining, 2.5×10^5 cells were resuspended in 100 μl of PBSB and incubated with polyclonal anti-full-length gC1qR/p32 or rabbit IgG (20 μg/ml) in PBSB for 30 min at 4° C. The cells were washed in PBSB and stained with goat anti rabbit Alexa 488 (2.5 μg/ml) for 30 min at 4° C. For FACS analysis of bound FITC-peptides, cultured cells were detached as above and incubated with 10 μM of FITC-peptides in 10% FCS/DMEM for 1 hour at 4° C. After washes with PBSB, the cells were resuspended in PBS containing 2 μg/ml of propidium iodide (PI, Molecular Probes/Invitrogen) to distinguish between live and dead cells, and 10,000 cells per sample were analyzed using a BD Biosciences FACSort.

Another assay relates to HL-60 leukemia cells. As to conditions: cited from earlier work.
A further assay concerns C8161 melanoma cells. As to conditions: cited from earlier work.
Another assay concerns BT549. As to conditions: cited from earlier work.
For another assay, the target named is T1, gC1qR/p32 (Homo sapiens, UniProt Q07021).
T1 construct: the specific band represents the mature form of a protein known as gC1qR/p32; endogenous in cells; host or cells: MDA-MB-435 cultured cells; MDA-MB-435 tumor xenografts
T1 sequence (Q07021 74-282): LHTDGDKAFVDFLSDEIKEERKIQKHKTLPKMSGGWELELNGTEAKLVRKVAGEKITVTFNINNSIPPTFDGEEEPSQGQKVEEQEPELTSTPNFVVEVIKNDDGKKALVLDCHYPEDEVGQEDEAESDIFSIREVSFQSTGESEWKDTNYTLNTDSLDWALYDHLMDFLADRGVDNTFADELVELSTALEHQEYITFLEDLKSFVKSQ
The assay can be described thus: Pull-down assay with biotinylated peptides from tumor cell extracts. As to conditions: extracts of cultured tumor cells (MDA-MB-435); anti-gC1qR/p32 immunoblot. It counts as binding. How it is done: Pull down assays were performed with biotinylated Lyp-1 peptide (SEQ ID NO:1, CGNKRTRGC) from protein extracts derived from MDA-MB-435 cultured cells or MDA-MB-435 tumor xenografts. A tumor homing peptide, CREKA (SEQ ID NO:3), and a peptide CRV which resembles Lyp-1 in its amino acid composition and cyclic structure (SEQ ID NO:4, CRVRTRSGC), were used as negative controls. The Lyp-1 bound proteins were visualized using silver staining and immunoblotting. […] The arrow indicates a specific 33 kD band, which was identified as gC1qR/p32 by mass spectrometry. […] The antibody recognizes a band of 33 kD in the total proteins lysate and in the Lyp-1 pull down. Anti gC1qR/p32 reactive bands are not detected in the pull downs from both control peptides. […] The monoclonal antibody against gC1qR/p32 recognized a 75 kD and a 33 kD band only in the Lyp-1 peptide pull down.
To identify the receptor for the LyP-1 peptide, biotin-labeled LyP-1 and control peptides were incubated with extracts of MDA-MB-435 cells, a cell line that binds and internalizes LyP-1 (Laakkonen et al., 2004). LyP-1 bound a specific band in the 30 kDa range that was not seen in the controls (FIG. 3A, left panel), which were the pentapeptide CREKA (SEQ ID NO: 3) (Simberg et al., 2007) and the nonapeptide CRVRTRSGC (SEQ ID NO: 4), which resembles LyP-1 in its amino acid composition and cyclic structure. […] LyP-1 affinity isolation also yielded gC1qR/p32 from cultured BT549 breast carcinoma cells and from extracts of MDA-MB-435 xenograft tumors.
Streptavidin agarose beads (Sigma-Aldrich) were resuspended in 2 volumes of phosphate buffer saline (PBS) and conjugated to 3 μg/10 μl beads of biotynilated peptides for 2 h on ice. After incubation, beads were washed three times with PBS/50 mM n-octyl-β-D glucopyranoside (Calbiochem; San Diego, Calif.) to remove free peptides. […] Bands that appeared in the LyP-1 but not control peptide pull down were cut out, digested with trypsin, and the resulting peptides were analyzed by matrix-assisted laser desorption ionization-time of flight (MALDI-TOF) mass spectrometry. […]

The subject of the next assay is tumors. As to conditions: cited from earlier work.
The next assay concerns MDA-MB-435. As to conditions: cited from earlier work.
The target of assay [1] is T2, purified gC1qR/p32 protein (Homo sapiens, UniProt Q07021).
T2 sequence (Q07021 74-282): T1 sequence (Q07021 74-282)
The assay can be described thus: In vitro phage binding to purified gC1qR/p32 coated on microtiter wells. As to conditions: 5 μg/ml coated protein, 16 h at 37° C., plaque assay. How it is done: Purified gC1qR/p32 or BSA, as a control, were coated onto microtiter wells (5 μg/ml) and targeted for binding with 10^8 pfu of insertless phage, Lyp-1 phage, or control phage carrying another tumor homing peptide (CREKA, SEQ ID NO:3). After 16 hours of incubation at 37° C., bound phages were eluted and quantified by plaque assay. The results are show in FIG. 2(a). Results are expressed as fold of Lyp-1 and CREKA (SEQ ID NO:3) phages recovered over insertless phage and are representative of five independent experiments.
Microtiter wells (Costar, Corning, N.Y.) were coated overnight at 4° C. with 5 μg/ml of either purified gC1qR/p32 or BSA (Sigma-Aldrich) in 100 μl/well of carbonate buffer (15 mM sodium carbonate, 35 mM sodium bicarbonate). Wells were washed three times with TBS and blocked with Pierce Superblock buffer according to the manufactures instructions. 10^8 pfu of LyP-1 and control phages were added to the wells in 100 μl/well of TBS/0.05% tween-20 and incubated for 16 h at 37° C. After 6 washes in TBS/0.05% tween-20, bound phages were eluted with 200 μl of Tris-HCl 1M pH 7.5/0.5% SDS for 30 min and subsequently quantified by plaque assay. […] Cells were washed 5 times with PBS/1% BSA and bound phages were quantified by plaque assay.

A further assay relates to mitochondrial membranes. As to conditions: 10 μM; cited from earlier work.
The next assay relates to MDA-MB-435 tumors. The assay can be described thus: Tumor localization of intravenously injected FITC-LyP-1 peptide. The format is in vivo, mice. As to conditions: circulation 1 hour; p32 immunohistochemical staining. From the text: Tumor localization of gC1qR/p32 and Lyp-1 peptide were visualized. gC1qR/p32, lymphatic or blood vessels, podoplanin and Meca32/CD31 were stained with fluorescently-labeled antibodies in MDA-MB-435 tumor xenografts. Polyclonal anti-gC1qR/p32 antibody recognizes cell clusters that lack blood vessels but contain lymphatics, or cells lining vessel-like structures positive for Podoplanin but not CD31 or Meca32. Fluorescein-conjugated Lyp-1 peptide was i.v. injected into mice bearing MDA-MB-435 tumors and allowed to circulate for 1 hour before removal of the tumor for gC1qR/p32 immunohistochemical analysis. Lyp-1 peptide localizes in gC1qR/p32-positive patches within the tumor.

Bridge positions count the residues as written; N and C are the ends. Ends that are not written are not given here. * marks the point of attachment. FITC = O=C1OC2(c3ccc(O)cc3Oc3cc(O)ccc32)c2ccc(NC(=S)*)cc21

Regarding “ARALPSQRSR [control peptide with same overall charge as LyP-1]”, in the assay with MDA-MB-435 cells, the “binding of FITC conjugated peptide to cells” value is on record as “less binding ability”.
Regarding “CGNKRTRGC (disulfide 1-9 (inferred)) [LyP-1, tumor homing cyclic nonapeptide]”, the LyP-1 binding entry was “not to significantly bind” in the assay on HL-60 leukemia cells, “not to significantly bind” with C8161 melanoma cells, “strong” in the assay on BT549 and “strong” with MDA-MB-435. Further, the “gC1qR/p32 bound/pulled down by biotinylated peptide” value (“gC1qR/p32 bound/pulled down” for short) with gC1qR/p32 is recorded as “specifically bound”. Further, the “TUNEL-positive lesions in tumors” value in the assay on tumors (in vivo peptide treatment) is given as “induced TUNEL-positive lesions”. For the same substance, the tumor growth result in the assay on tumors (systemic administration) is listed as “inhibits tumor growth”.
CNRRTKAGC (displayed on phage) [LyP-2]: the “phage binding to purified gC1qR/p32 relative to insertless control phage” value in assay [1] was “did not significantly bind”.
Turning to “CREKA [tumor homing pentapeptide used as negative control, as peptide and on phage]”, the “phage binding to purified gC1qR/p32 relative to insertless control phage” value in [1] is reported as “essentially no interaction”. The “gC1qR/p32 bound/pulled down” value with gC1qR/p32 was “not detected”.
As to “CRVRTRSGC (disulfide 1-9 (inferred)) [control nonapeptide resembling Lyp-1 in amino acid composition and cyclic structure]”, the “gC1qR/p32 bound/pulled down” value with gC1qR/p32 is recorded as “not detected”.
Consider D(KLAKLAK)2, for which the mitochondrial swelling entry with mitochondrial membranes is listed as “marked mitochondrial swelling”.
In the case of “FITC-LyP-1: fluorescein-conjugated LyP-1 peptide ({FITC}-CGNKRTRGC; disulfide 1-9 (inferred))”, the “tumor localization of intravenously injected peptide” value in the assay with MDA-MB-435 tumors is reported as “accumulated in tumor areas with high expression levels of gC1qR/p32”.
